We go through 7 cell lines from the supplement of paper PMC10307832.

Common to all, as to assay: relative viability (nuclei count vs DMSO), 5 days (fraction); higher = more cells survive
Compound in the experiment “Kobe2602 + Trametinib”: C1=CC(=CC=C1NC(=S)NNC2=C(C=C(C=C2[N+](=O)[O-])C(F)(F)F)[N+](=O)[O-])F [Kobe2602] + CC(=O)Nc1cccc(-n2c(=O)n(C3CC3)c(=O)c3c(Nc4ccc(I)cc4F)n(C)c(=O)c(C)c32)c1 [Trametinib] (partner 0.02 µM)
The method in brief:
(§1)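 Values are medians from duplicate plates. Each reflects relative viability, defined as the nuclei count of treated wells over that of vehicle wells. Lung cancer cell lines in 1536-well plates were pin-tool dosed one day after seeding with one drug alone or with a fixed anchor-drug dose plus five library-drug doses (not always all listed) in √10 steps, then fixed, stained and imaged at 4× after 5 days.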

Compound in the experiment “Kobe2602 + Pictilisib”: C1=CC(=CC=C1NC(=S)NNC2=C(C=C(C=C2[N+](=O)[O-])C(F)(F)F)[N+](=O)[O-])F [Kobe2602] + CS(=O)(=O)N1CCN(Cc2cc3nc(-c4cccc5[nH]ncc45)nc(N4CCOCC4)c3s2)CC1 [Pictilisib] (partner 1 µM)
An outline of the steps:
as §1

Compound in the experiment “Cabozantinib + Alpelisib”: COc1cc2nccc(Oc3ccc(NC(=O)C4(C(=O)Nc5ccc(F)cc5)CC4)cc3)c2cc1OC [Cabozantinib] + Cc1nc(NC(=O)N2CCC[C@H]2C(N)=O)sc1-c1ccnc(C(C)(C)C(F)(F)F)c1 [Alpelisib] (partner 2 µM)
The method in brief: as §1

Compound in the experiment “Zosuquidar + Phenformin”: O[C@@H](COc1cccc2ncccc12)CN1CCN([C@@H]2c3ccccc3[C@@H]3[C@H](c4ccccc42)C3(F)F)CC1 [Zosuquidar] + N=C(N)NC(=N)NCCc1ccccc1 [Phenformin] (partner 250 µM)
The method in brief: as §1

Take NCI-H3122: the relative viability with Kobe2602 + Trametinib (first compound 0.2 µM) was 0.257; in the experiment with Kobe2602 + Trametinib (first compound 0.6325 µM), 0.242; in the experiment with Kobe2602 + Trametinib (first compound 2 µM), 0.211; with Kobe2602 + Trametinib (first compound 6.325 µM), 0.214; with Kobe2602 + Trametinib (first compound 20 µM), 0.238; in the experiment with Kobe2602 + Pictilisib (first compound 0.2 µM), 0.575. For the same cell line, the relative viability came out at 0.599 with Kobe2602 + Pictilisib (first compound 0.6325 µM); 0.522 with Kobe2602 + Pictilisib (first compound 2 µM); 0.583 with Kobe2602 + Pictilisib (first compound 6.325 µM); 0.702 with Kobe2602 + Pictilisib (first compound 20 µM); 0.875 in the experiment with Cabozantinib + Alpelisib (first compound 0.02 µM); 0.778 with Cabozantinib + Alpelisib (first compound 0.06325 µM). Also, the relative viability with Cabozantinib + Alpelisib (first compound 0.2 µM) was determined as 0.731; in the experiment with Cabozantinib + Alpelisib (first compound 0.6325 µM) it was 0.97; with Cabozantinib + Alpelisib (first compound 2 µM) it was 0.956; in the experiment with Zosuquidar + Phenformin (first compound 0.01 µM), 0.346; in the experiment with Zosuquidar + Phenformin (first compound 0.03162 µM), 0.38; in the experiment with Zosuquidar + Phenformin (first compound 0.3162 µM), 0.377. For the same cell line, the relative viability with Zosuquidar + Phenformin (first compound 1 µM) is 0.319.

PC-3 [JPC-3]: the relative viability amounted to 0.69 with Kobe2602 + Trametinib (first compound 0.2 µM); 0.699 in the experiment with Kobe2602 + Trametinib (first compound 0.6325 µM); 0.7 with Kobe2602 + Trametinib (first compound 2 µM); 0.683 with Kobe2602 + Trametinib (first compound 6.325 µM); 0.668 in the experiment with Kobe2602 + Trametinib (first compound 20 µM); 0.873 with Kobe2602 + Pictilisib (first compound 0.2 µM). The relative viability was found to be 0.74 with Kobe2602 + Pictilisib (first compound 0.6325 µM); 0.795 in the experiment with Kobe2602 + Pictilisib (first compound 2 µM); 0.781 with Kobe2602 + Pictilisib (first compound 6.325 µM); 0.671 with Kobe2602 + Pictilisib (first compound 20 µM); 1.02 with Cabozantinib + Alpelisib (first compound 0.02 µM); 1.16 with Cabozantinib + Alpelisib (first compound 0.06325 µM). The relative viability with Cabozantinib + Alpelisib (first compound 0.6325 µM) is 1.06; in the experiment with Cabozantinib + Alpelisib (first compound 2 µM), 1.04; with Zosuquidar + Phenformin (first compound 0.01 µM) it was 0.493; in the experiment with Zosuquidar + Phenformin (first compound 0.03162 µM), 0.493; in the experiment with Zosuquidar + Phenformin (first compound 0.1 µM), 0.462; with Zosuquidar + Phenformin (first compound 0.3162 µM), 0.46. The relative viability in the experiment with Zosuquidar + Phenformin (first compound 1 µM) came out at 0.453.

As for PC-14, the relative viability came out at 0.697 in the experiment with Kobe2602 + Trametinib (first compound 0.2 µM); 0.693 with Kobe2602 + Trametinib (first compound 0.6325 µM); 0.659 in the experiment with Kobe2602 + Trametinib (first compound 2 µM); 0.823 with Kobe2602 + Trametinib (first compound 6.325 µM); 0.361 in the experiment with Kobe2602 + Trametinib (first compound 20 µM); 0.63 with Kobe2602 + Pictilisib (first compound 0.2 µM). Besides, the relative viability with Kobe2602 + Pictilisib (first compound 0.6325 µM) stood at 0.674; in the experiment with Kobe2602 + Pictilisib (first compound 2 µM), 0.592; in the experiment with Kobe2602 + Pictilisib (first compound 6.325 µM), 0.637; in the experiment with Kobe2602 + Pictilisib (first compound 20 µM) it was 0.745; in the experiment with Cabozantinib + Alpelisib (first compound 0.02 µM), 1; in the experiment with Cabozantinib + Alpelisib (first compound 0.06325 µM), 1.03. Moreover, the relative viability with Cabozantinib + Alpelisib (first compound 0.6325 µM) came out at 0.901; with Cabozantinib + Alpelisib (first compound 2 µM) it was 0.868; with Zosuquidar + Phenformin (first compound 0.01 µM), 0.502; in the experiment with Zosuquidar + Phenformin (first compound 0.03162 µM) it was 0.533; with Zosuquidar + Phenformin (first compound 0.1 µM) it was 0.447; with Zosuquidar + Phenformin (first compound 0.3162 µM) it was 0.645. Also, the relative viability in the experiment with Zosuquidar + Phenformin (first compound 1 µM) is 0.47.

Regarding RERF-LC-KJ, the relative viability was 0.839 with Kobe2602 + Trametinib (first compound 0.2 µM); 0.836 in the experiment with Kobe2602 + Trametinib (first compound 0.6325 µM); 0.864 with Kobe2602 + Trametinib (first compound 2 µM); 0.802 in the experiment with Kobe2602 + Trametinib (first compound 6.325 µM); 0.525 with Kobe2602 + Trametinib (first compound 20 µM); 0.589 with Kobe2602 + Pictilisib (first compound 0.2 µM). The relative viability came to 0.643 with Kobe2602 + Pictilisib (first compound 0.6325 µM); 0.512 with Kobe2602 + Pictilisib (first compound 2 µM); 0.506 with Kobe2602 + Pictilisib (first compound 6.325 µM); 0.493 with Kobe2602 + Pictilisib (first compound 20 µM); 0.864 in the experiment with Cabozantinib + Alpelisib (first compound 0.02 µM); 0.877 with Cabozantinib + Alpelisib (first compound 0.06325 µM). Also, the relative viability in the experiment with Cabozantinib + Alpelisib (first compound 0.2 µM) is 0.733; with Cabozantinib + Alpelisib (first compound 0.6325 µM), 0.847; with Cabozantinib + Alpelisib (first compound 2 µM) it was 0.675; with Zosuquidar + Phenformin (first compound 0.01 µM), 0.41; in the experiment with Zosuquidar + Phenformin (first compound 0.03162 µM), 0.45; with Zosuquidar + Phenformin (first compound 0.1 µM), 0.397. Further, the relative viability with Zosuquidar + Phenformin (first compound 0.3162 µM) is 0.402; with Zosuquidar + Phenformin (first compound 1 µM) it was 0.355.

Regarding SK-LU-1, the relative viability with Kobe2602 + Trametinib (first compound 0.2 µM) was determined as 0.519; with Kobe2602 + Trametinib (first compound 0.6325 µM), 0.506; in the experiment with Kobe2602 + Trametinib (first compound 2 µM), 0.469; in the experiment with Kobe2602 + Trametinib (first compound 6.325 µM) it was 0.439; with Kobe2602 + Trametinib (first compound 20 µM) it was 0.58; with Kobe2602 + Pictilisib (first compound 0.2 µM), 0.613. Moreover, the relative viability with Kobe2602 + Pictilisib (first compound 0.6325 µM) stood at 0.727; in the experiment with Kobe2602 + Pictilisib (first compound 2 µM) it was 0.624; in the experiment with Kobe2602 + Pictilisib (first compound 6.325 µM), 0.578; in the experiment with Kobe2602 + Pictilisib (first compound 20 µM) it was 0.513; with Cabozantinib + Alpelisib (first compound 0.06325 µM), 1.29; with Cabozantinib + Alpelisib (first compound 0.2 µM), 0.983. For the same cell line, the relative viability with Cabozantinib + Alpelisib (first compound 0.6325 µM) worked out at 0.718; with Cabozantinib + Alpelisib (first compound 2 µM) it was 0.705; in the experiment with Zosuquidar + Phenformin (first compound 0.01 µM) it was 0.547; with Zosuquidar + Phenformin (first compound 0.03162 µM), 0.522; with Zosuquidar + Phenformin (first compound 0.1 µM) it was 0.531; in the experiment with Zosuquidar + Phenformin (first compound 0.3162 µM), 0.632. In addition, in the experiment with Zosuquidar + Phenformin (first compound 1 µM), the relative viability was found to be 0.557.

In the case of SK-MES-1, the relative viability in the experiment with Kobe2602 + Trametinib (first compound 0.2 µM) was found to be 0.579; with Kobe2602 + Trametinib (first compound 0.6325 µM), 0.534; in the experiment with Kobe2602 + Trametinib (first compound 2 µM), 0.554; with Kobe2602 + Trametinib (first compound 6.325 µM), 0.589; with Kobe2602 + Trametinib (first compound 20 µM) it was 0.496; with Kobe2602 + Pictilisib (first compound 0.2 µM) it was 0.348. Besides, the relative viability with Kobe2602 + Pictilisib (first compound 0.6325 µM) came out at 0.362; in the experiment with Kobe2602 + Pictilisib (first compound 2 µM), 0.346; with Kobe2602 + Pictilisib (first compound 6.325 µM) it was 0.345; with Kobe2602 + Pictilisib (first compound 20 µM), 0.362; in the experiment with Cabozantinib + Alpelisib (first compound 0.02 µM), 1.08; with Cabozantinib + Alpelisib (first compound 0.06325 µM) it was 0.993. Further, the relative viability came out at 0.846 in the experiment with Cabozantinib + Alpelisib (first compound 0.2 µM); 0.826 in the experiment with Cabozantinib + Alpelisib (first compound 0.6325 µM); 0.816 in the experiment with Cabozantinib + Alpelisib (first compound 2 µM); 0.661 with Zosuquidar + Phenformin (first compound 0.01 µM); 0.622 in the experiment with Zosuquidar + Phenformin (first compound 0.03162 µM); 0.644 in the experiment with Zosuquidar + Phenformin (first compound 0.1 µM). Further, the relative viability with Zosuquidar + Phenformin (first compound 0.3162 µM) came out at 0.607; with Zosuquidar + Phenformin (first compound 1 µM), 0.637.

SW 1573: the relative viability in the experiment with Kobe2602 + Trametinib (first compound 0.2 µM) is 0.67; with Kobe2602 + Trametinib (first compound 0.6325 µM), 0.677; with Kobe2602 + Trametinib (first compound 2 µM), 0.46; with Kobe2602 + Trametinib (first compound 6.325 µM), 0.458; with Kobe2602 + Trametinib (first compound 20 µM) it was 0.155; in the experiment with Kobe2602 + Pictilisib (first compound 0.2 µM), 0.491. The relative viability was 0.457 in the experiment with Kobe2602 + Pictilisib (first compound 0.6325 µM); 0.365 with Kobe2602 + Pictilisib (first compound 2 µM); 0.556 with Kobe2602 + Pictilisib (first compound 6.325 µM); 0.486 with Kobe2602 + Pictilisib (first compound 20 µM); 1.02 with Cabozantinib + Alpelisib (first compound 0.02 µM); 0.719 with Cabozantinib + Alpelisib (first compound 0.06325 µM). Moreover, the relative viability is 0.77 in the experiment with Cabozantinib + Alpelisib (first compound 0.2 µM); 0.792 in the experiment with Cabozantinib + Alpelisib (first compound 0.6325 µM); 0.651 with Cabozantinib + Alpelisib (first compound 2 µM); 0.405 in the experiment with Zosuquidar + Phenformin (first compound 0.01 µM); 0.311 in the experiment with Zosuquidar + Phenformin (first compound 0.03162 µM); 0.457 with Zosuquidar + Phenformin (first compound 0.1 µM). The relative viability turned out to be 0.417 with Zosuquidar + Phenformin (first compound 0.3162 µM) and 0.39 in the experiment with Zosuquidar + Phenformin (first compound 1 µM).
